Data reported in US12679878B2, “CRF2 receptor agonists and their use in therapy” (SANOFI, priority 2020, dated 2026).
Starred links: 1 amine or outer side, 2 acyl side, 3 side chain; linkers in the order of their positions; H or OH if unused. Non-standard residues stand in square brackets, D forms with d. Residues, ends and D or L forms follow the SMILES beside them. Groups on a side chain read outwards from the residue. *: point of attachment. C18 diacid = O=C(O)CCCCCCCCCCCCCCCCC(=O)*; γGlu = O=C(O)[C@H](CCC(=O)[*:2])N[*:1]; AEEA = NCCOCCOCC(=O)O; Aib = CC(C)(N)C(=O)O

Legend:
[1] = Pharmacokinetic properties in mice, i.v. or s.c. (Example 16); assay type: in vivo, C57BI/6 mice; details: female, C57BL/6, plasma, Mouse
Protocol: (§1) The pharmacokinetic properties of exemplary peptides SEQ ID NO: 35 and SEQ ID NO: 24 were assessed in mice and rats.
(§2) The test compound was administered in a suitable buffer system (PBS buffer solution at pH 7.4, or DPBS solution) at concentrations of 0.05, 0.1, 0.5 or 1 mg/ml depending on the dose, species and administration volume. Female C57BI/6 mice and male SD rate were dosed 0.1 mg/kg or 0.3 mg/kg intravenously or subcutaneously. The animals were sacrificed, and blood samples were collected after 0.08, 0.25, 0.5, 1, 2, 4, 8, 24, 32, and 48 hours post-intravenous administration and 0.25, 0.5, 1, 2, 4, 8, 24, 32, and 48 hours post-subcutaneous administration, respectively. Plasma samples were analysed after protein precipitation via liquid chromatography mass spectrometry (LC/MS). Pharmacokinetic parameters and half-life were calculated using Phoenix-WinNonlin 8.1 using a non-compartmental model and linear trapezoidal interpolation calculation.

[2] = Pharmacokinetic properties in rats, i.v. or s.c. (Example 16); assay type: in vivo, SD rat; details: Rat
Protocol: as §1, §2

[3] = biological target: T1, endogenous human CRF2 (Homo sapiens, UniProt Q13324); assay: cAMP agonist effect in NCI-H82 cells expressing endogenous human CRF2 (Example 10); assay type: cell-based; details: cAMP HTRF, 5 min activation
T1 construct: endogenous in cells; host or cells: NCI-H82
T1 sequence (Q13324 1-411): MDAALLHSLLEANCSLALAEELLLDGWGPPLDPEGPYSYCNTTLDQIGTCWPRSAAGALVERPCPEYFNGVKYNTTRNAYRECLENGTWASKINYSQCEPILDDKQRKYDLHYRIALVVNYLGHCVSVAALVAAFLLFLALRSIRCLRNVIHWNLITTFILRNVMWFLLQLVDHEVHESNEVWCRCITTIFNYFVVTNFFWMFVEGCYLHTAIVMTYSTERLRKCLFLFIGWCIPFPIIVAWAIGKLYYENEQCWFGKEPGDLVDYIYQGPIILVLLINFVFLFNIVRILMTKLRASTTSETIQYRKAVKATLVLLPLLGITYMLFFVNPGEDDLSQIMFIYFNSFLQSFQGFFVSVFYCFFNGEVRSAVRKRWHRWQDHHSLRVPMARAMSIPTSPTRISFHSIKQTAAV
Protocol: The agonist effect of the compounds was assessed in NCI-H82 cells expressing endogenous human CRF2.
NCI-H82 cells in suspension were plated in low-volume 384-well plates at a density of 30000 cells/well in 5 μl of test medium (RPMI+1 mM IBMX). The plates were briefly centrifuged at 800 rpm to allow the cell suspension to move to the bottom of the wells and then incubated for 2 hours at 37° C. in 5% CO2. 5 μl of test compounds at appropriate concentrations (10-11 to 3×10-7) diluted in test medium were then transferred in 384 wells plates. After 5 min of activation, the reaction was stopped by addition of HTRF revelation reagents with a multidrop dispenser. The two reagents were 5 μl/well of Anti-CAMP-cryptate diluted 20-fold in conjugate and lysis buffer and 5 μl/well of cAMP-D2 diluted 20-fold in conjugate and lysis buffer. After one-hour incubation at room temperature in the dark, the plates were read on a Clariostar apparatus.

[4] = male, Sprague-Dawley (SD), plasma, iv, 0.1 mg/kg i.v.
[5] = male, Sprague-Dawley (SD), plasma, sc, 0.1 mg/kg s.c.

AUC(0-t) ([1]; iv, 0.3 mg/kg i.v.) | Cmax ([1]; iv, 0.3 mg/kg i.v.) | half-life ([1]; iv, 0.3 mg/kg i.v.) | clearance ([1]; iv, 0.3 mg/kg i.v., read-out: CI (converted)) | AUC(0-t) ([1]; sc, 0.1 mg/kg s.c.) | Cmax ([1]; sc, 0.1 mg/kg s.c.) | half-life ([1]; sc, 0.1 mg/kg s.c.) | AUClast ([2]; 0.1 mg/kg i.v.) | clearance ([2]; male, SD, plasma, iv, 0.1 mg/kg i.v., read-out: CI (converted)) | bioavailability ([2]; male, SD, plasma, sc, 0.1 mg/kg s.c.) | Cmax [2, 4] | half-life [2, 4] | AUC(0-t) [2, 5] | Cmax [2, 5] | half-life [2, 5] | EC50 [3] | SMILES
23700 ng·h/mL | 4150 ng/mL | 6.4 h | 0.21 mL/min/kg | 18500 ng·h/mL | 1410 ng/mL | 5.5 h | 2790 ng·h/mL | 0.597 mL/min/kg | 45.8% | 1900 ng/mL | 3 h | 1200 ng·h/mL | 131 ng/mL | 6.1 h | – | CC[C@H](C)[C@H](N)C(=O)N[C@H](C(=O)N[C@@H](CC(C)C)C(=O)N[C@@H](CO)C(=O)N[C@@H](CC(C)C)C(=O)N[C@@H](CC(=O)O)C(=O)N[C@H](C(=O)N1CCC[C@H]1C(=O)N[C@H](C(=O)N[C@@H](CCCCN)C(=O)N[C@@H](CC(C)C)C(=O)N[C@@H](CCCCNC(=O)COCCOCCNC(=O)COCCOCCNC(=O)CC[C@H](NC(=O)CCCCCCCCCCCCCCCCC(=O)O)C(=O)O)C(=O)N[C@@H](CCCCN)C(=O)N[C@H](C(=O)N[C@@H](CC(C)C)C(=O)N[C@@H](CC(C)C)C(=O)N[C@@H](CCC(=O)O)C(=O)N[C@@H](CCC(N)=O)C(=O)N[C@@H](CCC(=O)O)C(=O)N[C@@H](CCCCN)C(=O)N[C@@H](CCC(N)=O)C(=O)N[C@@H](CCCCN)C(=O)N[C@@H](CCCCN)C(=O)N[C@@H](CCC(N)=O)C(=O)N[C@@H](CCCNC(=N)N)C(=O)N[C@@H](CCC(=O)O)C(=O)N[C@@H](CCC(N)=O)C(=O)N[C@@H](C)C(=O)N[C@@H](CCC(=O)O)C(=O)N[C@H](C(=O)N[C@@H](CC(N)=O)C(=O)N[C@@H](CCCCN)C(=O)N[C@@H](CCC(N)=O)C(=O)N[C@H](C(=O)N[C@@H](CC(C)C)C(=O)N[C@@H](C)C(=O)N[C@@H](CCC(N)=O)C(=O)N[C@H](C(N)=O)C(C)C)[C@@H](C)CC)[C@@H](C)O)[C@@H](C)CC)[C@@H](C)CC)C(C)C)C(C)C [compound 35] (H-IVLSLDVPIKLK([AEEA-AEEA-γGlu-C18 diacid])KILLEQEKQKKQREQAETNKQILAQV-NH2; N-terminus assumed)
– | – | – | – | – | – | – | – | – | – | – | – | – | – | – | 0.11 µM | CC[C@H](C)[C@H](N)C(=O)N[C@H](C(=O)N[C@@H](CC(C)C)C(=O)N[C@@H](CO)C(=O)N[C@@H](CC(C)C)C(=O)N[C@@H](CC(=O)O)C(=O)N[C@@H](C(=O)N1CCC[C@H]1C(=O)N[C@H](C(=O)N[C@@H](CCCCN)C(=O)N[C@@H](CC(C)C)C(=O)N[C@@H](CCCCNC(=O)COCCOCCNC(=O)COCCOCCNC(=O)CC[C@H](NC(=O)CCCCCCCCCCCCCCCCC(=O)O)C(=O)O)C(=O)N[C@@H](CCC(N)=O)C(=O)N[C@H](C(=O)N[C@@H](CC(C)C)C(=O)N[C@@H](CC(C)C)C(=O)N[C@@H](CCCCN)C(=O)N[C@@H](CCC(N)=O)C(=O)N[C@@H](CCC(=O)O)C(=O)N[C@@H](CCCNC(=N)N)C(=O)N[C@@H](CCC(N)=O)C(=O)N[C@@H](CCCCN)C(=O)NC(C)(C)C(=O)N[C@@H](CCC(N)=O)C(=O)N[C@@H](CCCNC(=N)N)C(=O)N[C@@H](CCC(N)=O)C(=O)N[C@@H](CCC(N)=O)C(=O)N[C@@H](C)C(=O)N[C@@H](CCC(=O)O)C(=O)N[C@@H](CCCCN)C(=O)N[C@@H](CC(N)=O)C(=O)N[C@@H](CCCCN)C(=O)N[C@@H](CCC(N)=O)C(=O)N[C@H](C(=O)N[C@@H](CC(C)C)C(=O)N[C@@H](C)C(=O)N[C@@H](CCC(N)=O)C(=O)N[C@H](C(N)=O)C(C)C)[C@@H](C)CC)[C@@H](C)CC)[C@@H](C)CC)C(C)C)C(C)C [compound 135] (H-IVLSLD[dV]PIKLK([AEEA-AEEA-γGlu-C18 diacid])QILLKQERQK[Aib]QRQQAEKNKQILAQV-NH2; N-terminus assumed)
